Reference: ChEMBL document CHEMBL4477215, “Specific Correction of Alternative Survival Motor Neuron 2 Splicing by Small Molecules: Discovery of a Potential Novel Medicine To Treat Spinal Muscular Atrophy” (J Med Chem, 2016)

Experiments:
P-gp (ABCB1) = P-gp (ABCB1) (Homo sapiens, UniProt P08183); assay: Substrate activity at human P-gp assessed as efflux ratio by cell based assay; settings: not told
Mus musculus [1] = assay: (§1) Inhibition of mRNA splicing of SMN2 exon 7 in neonatal delta7 mouse harboring FVB.Cg-Tg(SMN2 delta7)4299Ahmb Tg(SMN2)-89Ahmb Smn1tm1Msd/J assessed as increase in SMN protein level in brain administered ip qd dosed from postnatal day 3 to postnatal day 9 measured 1 hr after last dose by HTRF assay; type: functional, organism-based
[2] = Volume of distribution at steady state in rat at 2 mg/kg, iv; type: ADME, organism-based; settings: in vivo, read-out: Vdss
[3] = Clearance in rat at 2 mg/kg, iv; type: ADME, organism-based; settings: in vivo
[4] = Half life in Cynomolgus monkey at 1 mg/kg, po; type: ADME, organism-based, Macaca fascicularis; settings: in vivo
Mus musculus [5] = assay: Inhibition of mRNA splicing of SMN2 exon 7 in C/C-allele mouse harboring FVB.129(B6) Smn1tm5(Smn1/SMN2)Mrph/J assessed as increase in SMN protein level in brain at 3 mg/kg, po qd for 10 days measured 1 hr after 10th dose by HTRF assay relative to control; type: functional; set-up: scale not given: the % may be the effect or the level left
[6] = Fraction unbound in human plasma; type: ADME, cell-free
[7] = Fraction unbound in rat plasma; type: ADME, cell-free
[8] = Oral bioavailability in rat at 10 mg/kg; type: ADME, organism-based; settings: in vivo
Mus musculus [9] = assay: Inhibition of mRNA splicing of SMN2 exon 7 in C/C-allele mouse harboring FVB.129(B6) Smn1tm5(Smn1/SMN2)Mrph/J assessed as increase in SMN protein level in brain at 1 mg/kg, po qd for 10 days measured 1 hr after 10th dose by HTRF assay relative to control; type: functional; set-up: scale not given: the % may be the effect or the level left
Mus musculus [10] = assay: Inhibition of mRNA splicing of SMN2 exon 7 in C/C-allele mouse harboring FVB.129(B6) Smn1tm5(Smn1/SMN2)Mrph/J assessed as increase in SMN protein level in quadriceps at 10 mg/kg, po qd for 10 days measured 1 hr after 10th dose by HTRF assay relative to control; type: functional; set-up: scale not given: the % may be the effect or the level left
Mus musculus [11] = assay: as §1, with “quadriceps at 0.3 mg/kg,” for “brain administered”, “administered” for “dosed”, “assay relative to control” for “assay”; type: functional; set-up: scale not given: the % may be the effect or the level left
[12] = Fraction unbound in mouse plasma; type: ADME, cell-free
Mus musculus [13] = assay: Inhibition of mRNA splicing of SMN2 exon 7 in C/C-allele mouse harboring FVB.129(B6) Smn1tm5(Smn1/SMN2)Mrph/J assessed as increase in SMN protein level in quadriceps at 3 mg/kg, po qd for 10 days measured 1 hr after 10th dose by HTRF assay relative to control; type: functional; set-up: scale not given: the % may be the effect or the level left
[14] = Half life in rat at 10 mg/kg, po; type: ADME, organism-based; settings: in vivo
Mus musculus [15] = assay: as §1, with “at 1 mg/kg,” for “administered”, “administered” for “dosed”, “assay relative to control” for “assay”; type: functional; set-up: scale not given: the % may be the effect or the level left
Mus musculus [16] = assay: as §1, with “quadriceps” for “brain”; type: functional, organism-based
[17] = Unbound AUC in plasma of C/C-allele mouse harboring FVB.129(B6)-Smn1tm5(Smn1/SMN2)Mrph/J at 10 mg/kg, po; type: ADME, organism-based; settings: in vivo
[18] = Mutagenicity in Salmonella typhimurium TA100 assessed as increase in revertant colonies after 2 days in presence of rat liver S9 fraction by Ames test relative to control; type: toxicity; settings: salmonella enterica subsp. enterica serovar typhimurium, s9, 48 h
Mus musculus [19] = assay: Inhibition of mRNA splicing of SMN2 exon 7 in C/C-allele mouse harboring FVB.129(B6) Smn1tm5(Smn1/SMN2)Mrph/J assessed as increase in SMN protein level in brain at 10 mg/kg, po qd for 10 days measured 1 hr after 10th dose by HTRF assay relative to control; type: functional; set-up: scale not given: the % may be the effect or the level left
[20] = AUC in plasma of C/C-allele mouse harboring FVB.129(B6)-Smn1tm5(Smn1/SMN2)Mrph/J at 10 mg/kg, po; type: ADME, organism-based
Mus musculus [21] = assay: Inhibition of mRNA splicing of SMN2 exon 7 in C/C-allele mouse harboring FVB.129(B6) Smn1tm5(Smn1/SMN2)Mrph/J assessed as increase in SMN protein level in brain administered orally po qd for 10 days measured 1 hr after 10th dose by HTRF assay; type: functional, organism-based
Mus musculus [22] = assay: Inhibition of mRNA splicing of SMN2 exon 7 in C/C-allele mouse harboring FVB.129(B6) Smn1tm5(Smn1/SMN2)Mrph/J assessed as increase in SMN protein level in quadriceps administered orally qd for 10 days measured 1 hr after 10th dose by HTRF assay; type: functional, organism-based
Mus musculus [23] = assay: Inhibition of mRNA splicing of SMN2 exon 7 in C/C-allele mouse harboring FVB.129(B6) Smn1tm5(Smn1/SMN2)Mrph/J assessed as increase in SMN protein level in quadriceps at 1 mg/kg, po qd for 10 days measured 1 hr after 10th dose by HTRF assay relative to control; type: functional; set-up: scale not given: the % may be the effect or the level left
[24] = Fraction unbound in Cynomolgus monkey plasma; type: ADME, cell-free, Macaca fascicularis
Mus musculus [25] = assay: as §1, with “quadriceps at 1 mg/kg,” for “brain administered”, “administered” for “dosed”, “assay relative to control” for “assay”; type: functional; set-up: scale not given: the % may be the effect or the level left
[26] = Clearance in Cynomolgus monkey at 0.3 mg/kg, iv; type: ADME, organism-based, Macaca fascicularis; settings: in vivo
[27] = Mutagenicity in Salmonella typhimurium TA1535 assessed as increase in revertant colonies after 2 days in presence of rat liver S9 fraction by Ames test relative to control; type: toxicity; settings: salmonella enterica subsp. enterica serovar typhimurium, s9, 48 h
[28] = Octanol-aqueous phosphate buffer distribution coefficient, log D of the compound at pH 7.4 at 100 mM after 24 hrs by LC-MS based shake flask method; type: physicochemical
Mus musculus [29] = assay: as §1, with “at 0.3 mg/kg,” for “administered”, “administered” for “dosed”, “assay relative to control” for “assay”; type: functional; set-up: scale not given: the % may be the effect or the level left
[30] = Mutagenicity in Salmonella typhimurium TA102 assessed as increase in revertant colonies after 2 days in presence of rat liver S9 fraction by Ames test relative to control; type: toxicity; settings: salmonella enterica subsp. enterica serovar typhimurium, s9, 48 h
Homo sapiens [31] = organism: Homo sapiens; assay: Inhibition of mRNA splicing of SMN2 exon 7 in GM03813 fibroblasts derived from human SMA type 1 patient after 24 hrs by RT-qPCR analysis
Homo sapiens [32] = organism: Homo sapiens; assay: Inhibition of mRNA splicing of SMN2 exon 7 in fibroblasts derived from human SMA type 1/2/3 patient assessed as increase in SMN protein level after 48 hrs by HTRF assay
[33] = Oral bioavailability in Cynomolgus monkey at 1 mg/kg; type: ADME, organism-based, Macaca fascicularis; settings: in vivo

Chain of P-gp (ABCB1) (P08183 whole entry): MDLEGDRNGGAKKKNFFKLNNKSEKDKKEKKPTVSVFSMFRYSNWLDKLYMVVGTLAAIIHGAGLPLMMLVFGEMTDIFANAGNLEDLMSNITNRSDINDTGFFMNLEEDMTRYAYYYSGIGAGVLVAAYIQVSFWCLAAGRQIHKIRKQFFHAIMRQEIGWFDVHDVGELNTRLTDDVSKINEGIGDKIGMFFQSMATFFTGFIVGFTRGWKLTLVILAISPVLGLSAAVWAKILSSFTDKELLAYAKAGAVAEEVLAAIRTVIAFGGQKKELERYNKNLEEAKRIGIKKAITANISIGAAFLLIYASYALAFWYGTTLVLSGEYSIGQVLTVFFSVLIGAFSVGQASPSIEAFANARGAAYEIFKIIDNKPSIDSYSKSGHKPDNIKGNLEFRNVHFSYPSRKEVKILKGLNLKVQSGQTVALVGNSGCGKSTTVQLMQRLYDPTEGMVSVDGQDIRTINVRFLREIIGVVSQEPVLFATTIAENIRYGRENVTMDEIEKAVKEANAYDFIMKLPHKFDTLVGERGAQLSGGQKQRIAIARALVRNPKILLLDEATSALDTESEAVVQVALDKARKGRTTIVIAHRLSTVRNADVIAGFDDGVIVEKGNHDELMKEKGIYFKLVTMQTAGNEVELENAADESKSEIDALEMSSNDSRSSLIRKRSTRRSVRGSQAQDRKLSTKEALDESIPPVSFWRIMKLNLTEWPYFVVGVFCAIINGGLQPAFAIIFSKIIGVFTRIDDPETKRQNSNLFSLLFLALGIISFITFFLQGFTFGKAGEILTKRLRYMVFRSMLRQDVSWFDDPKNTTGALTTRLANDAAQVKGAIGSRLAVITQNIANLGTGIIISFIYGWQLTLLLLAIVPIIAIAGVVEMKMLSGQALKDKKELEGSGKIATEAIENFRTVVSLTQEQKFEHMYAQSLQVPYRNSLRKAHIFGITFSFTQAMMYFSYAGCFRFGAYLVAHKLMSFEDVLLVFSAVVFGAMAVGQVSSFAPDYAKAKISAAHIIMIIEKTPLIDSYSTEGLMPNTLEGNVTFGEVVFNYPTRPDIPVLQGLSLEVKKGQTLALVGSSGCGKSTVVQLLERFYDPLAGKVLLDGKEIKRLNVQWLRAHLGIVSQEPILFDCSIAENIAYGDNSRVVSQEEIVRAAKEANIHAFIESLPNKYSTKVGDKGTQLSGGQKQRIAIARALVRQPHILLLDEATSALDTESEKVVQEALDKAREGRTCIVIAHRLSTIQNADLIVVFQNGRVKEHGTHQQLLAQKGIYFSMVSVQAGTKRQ

Row | Structure (SMILES) | efflux ratio (P-gp (ABCB1)) | inhibition (Mus musculus [1]) | Vd [2] [L/kg] | clearance [3] [mL/min/kg] | half-life [4] [h] | Activity (Mus musculus [5]) [%] | fraction unbound [6] | fraction unbound [7] | bioavailability [8] [%] | Activity (Mus musculus [9]) [%] | Activity (Mus musculus [10]) [%] | Activity (Mus musculus [11]) [%] | fraction unbound [12] | Activity (Mus musculus [13]) [%] | half-life [14] [h] | Activity (Mus musculus [15]) [%] | inhibition (Mus musculus [16]) | fAUC [17] [ng·h/mL] | Activity [18] | Activity (Mus musculus [19]) [%] | further results
1 | Cc1cn2cc(-c3cc(=O)n4cc(N5CCN(C)CC5)ccc4n3)cc(C)c2n1 | 2.4 | Dose-dependent effect | 14 | 38 | 8 | 0 | 0.11 | 0.1 | 55 to 100 | 0 | 133 | 31 | 0.16 | 70 | 6 | 130 | Dose-dependent effect | 400 | Non-Toxic | 39 | AUC [20]: 2500 ng·h/mL; inhibition (Mus musculus [21]): Dose-dependent effect; inhibition (Mus musculus [22]): Dose-dependent effect; Activity (Mus musculus [23]): 28%; fraction unbound [24]: 0.08; Activity (Mus musculus [25]): 115%; clearance [26]: 7.5 mL/min/kg; Activity [27]: Non-Toxic; logD at 24 h [28]: 2.49; Activity (Mus musculus [29]): 39%; Activity [30]: Non-Toxic; EC1.5 (Homo sapiens [31]): 7 nM; EC1.5 (Homo sapiens [32]): 14 to 55 nM; bioavailability [33]: 100%
2 | CCc1nc(C)cn2nc(-c3cc(=O)n4cc(C5CCN(C)CC5)cc(C)c4n3)cc12 | 2 | Dose-dependent effect | 20 | 18 | 40 to 60 | 19 | 0.13 | 0.17 | 83 | 7 | 94 | 40 | 0.02 | 57 | 12 | 55 | Dose-dependent effect | 660 | Non-Toxic | 122 | AUC [20]: 33000 ng·h/mL; inhibition (Mus musculus [21]): Dose-dependent effect; inhibition (Mus musculus [22]): Dose-dependent effect; Activity (Mus musculus [23]): 30%; fraction unbound [24]: 0.16; Activity (Mus musculus [25]): 57%; clearance [26]: 5 mL/min/kg; Activity [27]: Non-Toxic; logD at 24 h [28]: 2.26; Activity (Mus musculus [29]): 20%; Activity [30]: Non-Toxic; EC1.5 (Homo sapiens [31]): 23 nM; EC1.5 (Homo sapiens [32]): 87 nM; bioavailability [33]: 52%
3 | Cc1cn2cc(-c3cc(=O)n4cc(N5CCN(C)CC5)ccc4n3)cc(F)c2n1 | 1.9 | Dose-dependent effect | 5 | 61 | 2.9 | 60 | 0.22 | 0.16 | 100 | 42 | 126 | 189 | 0.17 | 81 | 4 | 159 | Dose-dependent effect | 450 | Non-Toxic | 141 | AUC [20]: 2700 ng·h/mL; inhibition (Mus musculus [21]): Dose-dependent effect; inhibition (Mus musculus [22]): Dose-dependent effect; Activity (Mus musculus [23]): 40%; fraction unbound [24]: 0.18; Activity (Mus musculus [25]): 260%; clearance [26]: 9.7 mL/min/kg; Activity [27]: Non-Toxic; logD at 24 h [28]: 2.3; Activity (Mus musculus [29]): 116%; Activity [30]: Non-Toxic; EC1.5 (Homo sapiens [31]): 32 nM; EC1.5 (Homo sapiens [32]): 40 nM; bioavailability [33]: 84%
